# Experiments:
# Experiment in all cases: relative viability (nuclei count vs DMSO), 5 days (fraction); higher = more cells survive
# [1] = test system: NCI-H647
# Outline: (§1)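 For relative viability, nuclei counts in treated wells were divided by those in vehicle wells. Lung cancer cell lines had been pin-tool dosed in 1536-well plates the day after seeding and cultured for 5 days, then fixed and stained in one step (final 0.05% Triton X-100, 1% formaldehyde, 1 ug/ml Hoechst) and imaged at 4×. Doses were one drug alone or a fixed anchor-drug dose plus five library-drug doses (not always all listed) in √10 steps, and values are duplicate-plate medians.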
# [2] = test system: NCI-H1437
# Outline: as §1
# [3] = test system: NCI-H1651
# Outline: as §1
# [4] = test system: HCC-78
# Outline: as §1
# [5] = test system: NCI-H661
# Outline: as §1
# [6] = test system: NCI-H1395
# Outline: as §1
# [7] = test system: NCI-H1793
# Outline: as §1
# [8] = test system: NCI-H23
# Outline: as §1
# [9] = test system: NCI-H1734
# Outline: as §1
# [10] = test system: EMC-BAC-2
# Outline: as §1
# [11] = test system: LCLC-103H
# Outline: as §1
# [12] = test system: ABC-1
# Outline: as §1
# [13] = test system: NCI-H1792
# Outline: as §1
# [14] = test system: NCI-H2405
# Outline: as §1
# [15] = test system: RERF-LC-KJ
# Outline: as §1
# [16] = test system: NCI-H1915
# Outline: as §1
# [17] = test system: SK-LU-1
# Outline: as §1
# [18] = test system: 201T
# Outline: as §1
# [19] = test system: EPLC-272H
# Outline: as §1
# [20] = test system: NCI-H2023
# Outline: as §1
# [21] = test system: NCI-H1975
# Outline: as §1
# [22] = test system: UMC-11
# Outline: as §1
# [23] = test system: LOU-NH91
# Outline: as §1
structure (smiles),measurement,setting,value
Cc1cnc(-c2cnc(NCCNc3ccc(C#N)cn3)nc2-c2ccc(Cl)cc2Cl)[nH]1 + Nc1ncn([C@H]2C[C@H](O)[C@@H](CO)O2)c(=O)n1 [Decitabine] (partner 2 µM),relative viability,[1]; first compound 0.08 µM,0.381
same,relative viability,[1]; first compound 0.253 µM,0.36
same,relative viability,[1]; first compound 0.8 µM,0.349
same,relative viability,[1]; first compound 2.53 µM,0.297
same,relative viability,[2]; first compound 0.08 µM,0.538
same,relative viability,[2]; first compound 0.253 µM,0.511
same,relative viability,[2]; first compound 0.8 µM,0.558
same,relative viability,[2]; first compound 2.53 µM,0.563
same,relative viability,[3]; first compound 0.08 µM,0.626
same,relative viability,[3]; first compound 0.253 µM,0.523
same,relative viability,[3]; first compound 0.8 µM,0.587
same,relative viability,[3]; first compound 2.53 µM,0.625
same,relative viability,[4]; first compound 0.08 µM,0.692
same,relative viability,[4]; first compound 0.253 µM,0.507
same,relative viability,[4]; first compound 0.8 µM,0.767
same,relative viability,[4]; first compound 2.53 µM,0.731
same,relative viability,[5]; first compound 0.08 µM,0.609
same,relative viability,[5]; first compound 0.253 µM,0.545
same,relative viability,[5]; first compound 0.8 µM,0.569
same,relative viability,[5]; first compound 2.53 µM,0.551
same,relative viability,[6]; first compound 0.08 µM,0.774
same,relative viability,[6]; first compound 0.253 µM,0.714
same,relative viability,[6]; first compound 0.8 µM,0.737
same,relative viability,[6]; first compound 2.53 µM,0.757
same,relative viability,[7]; first compound 0.08 µM,0.494
same,relative viability,[7]; first compound 0.253 µM,0.514
same,relative viability,[7]; first compound 0.8 µM,0.583
same,relative viability,[7]; first compound 2.53 µM,0.541
same,relative viability,[8]; first compound 0.08 µM,0.382
same,relative viability,[8]; first compound 0.253 µM,0.293
same,relative viability,[8]; first compound 0.8 µM,0.323
same,relative viability,[8]; first compound 2.53 µM,0.387
same,relative viability,[9]; first compound 0.08 µM,0.514
same,relative viability,[9]; first compound 0.253 µM,0.453
same,relative viability,[9]; first compound 0.8 µM,0.544
same,relative viability,[9]; first compound 2.53 µM,0.567
same,relative viability,[10]; first compound 0.08 µM,1.15
same,relative viability,[10]; first compound 0.253 µM,0.911
same,relative viability,[10]; first compound 0.8 µM,0.912
same,relative viability,[10]; first compound 2.53 µM,0.995
same,relative viability,[11]; first compound 0.08 µM,0.732
same,relative viability,[11]; first compound 0.253 µM,0.722
same,relative viability,[11]; first compound 0.8 µM,0.751
same,relative viability,[11]; first compound 2.53 µM,0.728
same,relative viability,[12]; first compound 0.08 µM,1.27
same,relative viability,[12]; first compound 0.253 µM,0.871
same,relative viability,[12]; first compound 0.8 µM,1.08
same,relative viability,[12]; first compound 2.53 µM,0.918
same,relative viability,[13]; first compound 0.08 µM,0.564
same,relative viability,[13]; first compound 0.253 µM,0.476
same,relative viability,[13]; first compound 0.8 µM,0.542
same,relative viability,[13]; first compound 2.53 µM,0.469
same,relative viability,[14]; first compound 0.08 µM,0.799
same,relative viability,[14]; first compound 0.253 µM,0.734
same,relative viability,[14]; first compound 0.8 µM,0.758
same,relative viability,[14]; first compound 2.53 µM,0.645
same,relative viability,[15]; first compound 0.08 µM,0.713
same,relative viability,[15]; first compound 0.253 µM,0.702
same,relative viability,[15]; first compound 0.8 µM,0.66
same,relative viability,[15]; first compound 2.53 µM,0.599
same,relative viability,[16]; first compound 0.08 µM,0.275
same,relative viability,[16]; first compound 0.8 µM,0.286
same,relative viability,[16]; first compound 2.53 µM,0.264
same,relative viability,[17]; first compound 0.08 µM,0.645
same,relative viability,[17]; first compound 0.253 µM,0.478
same,relative viability,[17]; first compound 0.8 µM,0.688
same,relative viability,[17]; first compound 2.53 µM,0.711
same,relative viability,[18]; first compound 0.08 µM,0.817
same,relative viability,[18]; first compound 0.8 µM,0.828
same,relative viability,[18]; first compound 2.53 µM,0.849
same,relative viability,[19]; first compound 0.08 µM,0.436
same,relative viability,[19]; first compound 0.253 µM,0.353
same,relative viability,[19]; first compound 0.8 µM,0.352
same,relative viability,[19]; first compound 2.53 µM,0.467
same,relative viability,[20]; first compound 0.08 µM,0.232
same,relative viability,[20]; first compound 0.253 µM,0.195
same,relative viability,[20]; first compound 0.8 µM,0.241
same,relative viability,[20]; first compound 2.53 µM,0.228
same,relative viability,[21]; first compound 0.08 µM,0.349
same,relative viability,[21]; first compound 0.253 µM,0.361
same,relative viability,[21]; first compound 0.8 µM,0.409
same,relative viability,[21]; first compound 2.53 µM,0.314
same,relative viability,[22]; first compound 0.08 µM,0.727
same,relative viability,[22]; first compound 0.253 µM,0.533
same,relative viability,[22]; first compound 0.8 µM,0.314
same,relative viability,[22]; first compound 2.53 µM,0.668
same,relative viability,[23]; first compound 0.08 µM,0.818
same,relative viability,[23]; first compound 0.253 µM,0.799
same,relative viability,[23]; first compound 0.8 µM,0.852
same,relative viability,[23]; first compound 2.53 µM,0.802

# Reference: the supplement of paper PMC10307832
